Test results from article PMC3006138, “Fexinidazole – A New Oral Nitroimidazole Drug Candidate Entering Clinical Development for the Treatment of Sleeping Sickness” (PLoS Neglected Tropical Diseases, 2010).

Columns and labels:
[1] = 28-day repeated-dose oral toxicity; assay type: in vivo
Protocol: In the rat repeated-dose toxicokinetic study, fexinidazole was administered orally by gavage once a day for 28 consecutive days to ten or fifteen Crl:CD (SD)IGS BR rats/sex/group at doses of 50, 200, or 800 mg/kg/day. A control group received the vehicle alone (5% Tween 80/0.5% methocel). Ten animals/sex/group were sacrificed at the end of the treatment period on day 29 or 30 of study. The remaining 5 animals/sex/group in the control and high-dose groups were sacrificed on day 43 at the end of a 2-weeks observation period. Systemic exposure to fexinidazole and its sulfoxide and sulfone metabolites was evaluated in three additional animals/sex/group. Samples were taken at predose, and 30 min, 1, 2, 4, 8 and 24 h after dosing on days 1, 14, and 28, and in addition at 48 and 72 h after treatment on day 28.
Study Report for NervianoMS Study 0504-2007
Fexinidaxole, a 5-nitroimidazole derivative biologically active against Trypanosoma parasites (T.b. rhodesiense and T.b. brucei ), was administered orally by gavage once daily for 28 consecutive days to ten or fifteen Crl:CD (SD)IGS BR rats/sex/group at doses of 50, 200 and 800 mg/kg/day in a volume of 10 mL/kg.
A control group received the vehicle alone (5% Tween 80 in 0.5% Methyl cellulose 400 cP […]
Ten animals/sex/group were sacrificed at the end of the treatment period on Day 29 or 30 of study. The remaining 5 animals/sex in the control and high-dose groups were sacrificed on Day 43 at the end of a two-week observation period.
Mortality, behavior and general condition were observed daily. Body weight was recorded pretest, and on Days 1, 8, 14, 21, 28, 35 and 42. Food consumption was recorded from Days […]
pre-test, and on Days 28 and 42. Hematological and clinical chemistry examinations and urine analysis were performed on Days 29 and 43.
Post-mortem examinations performed at the end of the treatment period (Day 29 or 30) or the recovery period (Day 43) included necropsy, organ weights and histological […]
Systemic exposure information was obtained from three additional animals/sex/group on Days 1 and 14 at different time-points up to 24 hours after treatment and on Day 28 at different time-points up to 72 hours after treatment.
No meaningful clinical signs or changes in ophthalmoscopic examinations were seen. […]
animals at 200 and 800 mg/kg for the entire treatment period. When treatment was […]
weight gain in comparison with controls.
Nerviano Medical Sciences […]
Humidity 55% +/- 15; monitored
Air Approximately twenty air changes per hour; monitored
Lighting Approximate 12-hour light, 12-hour dark cycle. The lighting cycle could be interrupted for performance of protocol-defined activities.
Water Municipal main, water available ad libitum
Diet 4RF21 GLP pellets ad libitum, supplied by Mucedola
Actual conditions were continuously monitored and recorded, and records were retained.
Release of each lot of feed by the manufacturers was based on analysis of composite samples of each lot, which met specifications set by the manufacturers. Water was periodically analyzed for chemical and microbial impurities. No contaminants were identified in the food or water which were expected to interfere with the results or conclusions of this study.
All the above environmental conditions, as well as all the procedures adopted throughout the study for housing and handling the animals, were in strict compliance with EEC and Italian Guidelines for Laboratory Animal Welfare.
6.2.2. Allocation/Randomization
The animals were selected and distributed into experimental groups using random number tables (Fisher and Yates). The randomization was performed during the pretest period on February 1, 2008 for all animals.
One male animal (No. 2846) assigned to satellite study group for toxicokinetic purposes, found dead on Day 2 of study, was replaced with another one taken from the same arrival batch of animals, in order to maintain the number of three animals/sex/group for subsequent […]
blood samplings. […]

[2] = set-up: method as in ref 3 (report no. 0275-2007-R); conditions: single 50 mg/kg po, ref 3 (report no. 0275-2007-R); cited from earlier work
[3] = system: rat liver cells; assay: Ex vivo unscheduled DNA synthesis; assay type: in vivo
Protocol: Groups of young male Sprague-Dawley rats received fexinidazole at doses of 500, 1000, or 2000 mg/kg orally, and the livers were sampled either 2–4 h or 12–14 h after administration. Hepatocyte suspensions were prepared and incubated in the presence of […] thymidine. Slides of fixed hepatocytes were coated in photographic emulsion and stored for 14 days at 4°C in the dark. The silver grains above the nuclei or cytoplasm (background) were counted, providing a measure of DNA uptake during DNA repair. The difference between these two counts indicated the extent of DNA repair (nuclear net grain count).

CSc1ccc(OCc2ncc([N+](=O)[O-])n2C)cc1 [Fexinidazole, 1-methyl-2-((p-(methylthio)phenoxy)methyl)-5-nitroimidazole]
mortality ([1]; all groups): No compound-related mortality occurred
NOAEL at 28 days ([1]; both sexes, Crl:CD (SD)IGS BR, rat, in vivo, po): 200 mg/kg/day
decrease in hemoglobin ([1]; rat, in vivo): 8%
decrease in neutrophils ([1]; rat, in vivo): about 46%
decrease in triglycerides ([1]; rat, in vivo): 50%
increase in globulins ([1]; rat, in vivo): +13%
increase in total cholesterol ([1]; rat, in vivo): +51%
liver enzymes ([1]; rat, in vivo): no increase in liver enzymes including AST and ALT
liver histopathology ([1]; rat, in vivo): Minimal to slight hypertrophy of the centrilobular hepatocytes
AUC0-tlast [2]: 416 ng⋅h/mL
Cmax [2]: 154 ng/mL
Net nuclear grain count (2–4 h) ([3]; 500 mg/kg po): 0.0
Net nuclear grain count (12–14 h) ([3]; 500 mg/kg po): 0.4
Net nuclear grain count (2–4 h) ([3]; 1000 mg/kg po): −0.1
Net nuclear grain count (12–14 h) ([3]; 1000 mg/kg po): 0.5
Net nuclear grain count (2–4 h) ([3]; 2000 mg/kg po): −0.4
Net nuclear grain count (12–14 h) ([3]; 2000 mg/kg po): 0.2
UDS study result ([3]; rat, in vivo): confirmed the lack of mammalian genotoxic activity
